In US8541460B2, “PDK-1/Akt signaling inhibitors” (The Ohio State University, priority 2003, dated 2013):

What was measured:
COX-2 = COX-2 (Homo sapiens, UniProt P35354); assay: COX-2 inhibitory activity; assay type: biochemical; conditions: concentrations up to 50 μM
NCI-H522 = assay: NCI DTP cell line screen (SRB), Non-Small Cell Lung Cancer; assay type: cell-based, human
Experimental: (§1) Screening of compounds 70 and 71 against several cancer cell lines The human tumor cell lines of the cancer screening panel are grown in RPMI 1640 medium containing 5% fetal bovine serum and 2 mM L-glutamine. For a typical screening experiment, cells are inoculated into 96 well microtiter plates in 100 μL at plating densities ranging from 5,000 to 40,000 cells/well depending on the doubling time of individual cell lines. After cell inoculation, the microtiter plates are incubated at 37° C., 5% CO2, 95% air and 100% relative humidity for 24 h prior to addition of experimental drugs.
(§2) After 24 h, two plates of each cell line are fixed in situ with TCA, to represent a measurement of the cell population for each cell line at the time of drug addition (Tz). Experimental drugs are solubilized in dimethyl sulfoxide at 400-fold the desired final maximum test concentration and stored frozen prior to use. At the time of drug addition, an aliquot of frozen concentrate is thawed and diluted to twice the desired final maximum test concentration with complete medium containing 50 μg/ml gentamicin. Additional four, 10-fold or ½ log serial dilutions are made to provide a total of five drug concentrations plus control. Aliquots of 100 μl of these different drug dilutions are added to the appropriate microtiter wells already containing 100 μl of medium, resulting in the required final drug concentrations.
(§3) Following drug addition, the plates are incubated for an additional 48 h at 37° C., 5% CO2, 95% air, and 100% relative humidity. For adherent cells, the assay is terminated by the addition of cold TCA. Cells are fixed in situ by the gentle addition of 50 μl of cold 50% (w/v) TCA (final concentration, 10% TCA) and incubated for 60 minutes at 4° C. The supernatant is discarded, and the plates are washed five times with tap water and air dried. Sulforhodamine B (SRB) solution (100 μl) at 0.4% (w/v) in 1% acetic acid is added to each well, and plates are incubated for 10 minutes at room temperature. After staining, unbound dye is removed by washing five times with 1% acetic acid and the plates are air dried. Bound stain is subsequently solubilized with 10 mM trizma base, and the absorbance is read on an automated plate reader at a wavelength of 515 nm. For suspension cells, the methodology is the same except that the assay is terminated by fixing settled cells at the bottom of the wells by gently adding 50 μl of 80% TCA (final concentration, 16% TCA). Using the seven absorbance measurements [time zero, (Tz), control growth, (C), and test growth in the presence of drug at the five concentration levels (Ti)], the percentage growth is calculated at each of the drug concentrations levels. Percentage growth inhibition is calculated as: [(Ti−Tz)/(C−Tz)]×100 for concentrations for which Ti>/=Tz [(Ti−Tz)/Tz]×100 for concentrations for which Ti<Tz
(§4) Three dose response parameters are calculated for each experimental agent. […] The drug concentration resulting in total growth inhibition (TGI) is calculated from Ti=Tz. […] Values are calculated for each of these three parameters if the level of activity is reached; however, if the effect is not reached or is exceeded, the value for that parameter is expressed as greater or less than the maximum or minimum concentration tested.
(§5) The methods described were used to test compounds 70 and 71 on a panel of sixty cell lines under a screening service provided by the Developmental Therapeutics Program at the National Institutes of Health. Shown in FIG. 1C are 1, RPMI-8226 leukemia cells; 2; NCI-H322M non-small cell lung cancer cells; 3, HT29 colon cancer cells; 4, U251 CNS cancer cells; 5, SK-MEL-28 melanoma cancer cells; 6, SK-OV-3 ovarian cancer cells; 7, RXF 393 renal cancer cells; 8, PC-3 prostate cancer cells; 9, MDA-MB-231 breast cancer cells.

MALME-3M = assay: NCI DTP cell line screen (SRB), Melanoma; assay type: cell-based
UACC-62 = assay: NCI DTP cell line screen (SRB), Melanoma; assay type: cell-based
IGROV1 = assay: NCI DTP cell line screen (SRB), Ovarian Cancer; assay type: cell-based
Experimental: as §1, §2, §3, §4, §5

OVCAR-3 = assay: NCI DTP cell line screen (SRB), Ovarian Cancer; assay type: cell-based
Experimental: as §1, §2, §3, §4, §5

OVCAR-4 = assay: NCI DTP cell line screen (SRB), Ovarian Cancer; assay type: cell-based
Experimental: as §1, §2, §3, §4, §5

OVCAR-5 = assay: NCI DTP cell line screen (SRB), Ovarian Cancer; assay type: cell-based
Experimental: as §1, §2, §3, §4, §5

OVCAR-8 = assay: NCI DTP cell line screen (SRB), Ovarian Cancer; assay type: cell-based; conditions: OVCAR-8
Experimental: as §1, §2, §3, §4, §5

COX-2, sequence (P35354 18-604): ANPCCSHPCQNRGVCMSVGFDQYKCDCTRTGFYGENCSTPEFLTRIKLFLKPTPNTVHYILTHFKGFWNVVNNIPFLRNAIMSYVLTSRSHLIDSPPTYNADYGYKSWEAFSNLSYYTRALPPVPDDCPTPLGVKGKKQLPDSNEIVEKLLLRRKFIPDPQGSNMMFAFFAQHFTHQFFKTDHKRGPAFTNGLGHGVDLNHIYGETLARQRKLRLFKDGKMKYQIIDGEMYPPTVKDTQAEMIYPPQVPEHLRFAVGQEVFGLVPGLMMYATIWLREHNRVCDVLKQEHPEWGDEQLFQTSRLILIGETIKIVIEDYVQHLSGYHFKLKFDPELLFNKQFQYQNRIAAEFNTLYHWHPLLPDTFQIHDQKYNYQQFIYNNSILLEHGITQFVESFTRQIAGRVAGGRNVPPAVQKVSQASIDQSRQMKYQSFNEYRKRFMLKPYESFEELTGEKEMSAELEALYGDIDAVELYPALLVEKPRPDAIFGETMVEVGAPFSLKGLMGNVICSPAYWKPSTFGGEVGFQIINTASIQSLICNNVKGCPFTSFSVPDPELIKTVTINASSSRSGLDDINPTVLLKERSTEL

In the case of NCC(=O)Nc1ccc(-n2nc(C(F)(F)F)cc2-c2ccc3c(ccc4ccccc43)c2)cc1 [Compound 70, 2-Amino-N-{4-[5-(2-phenanthrenyl)-3-(trifluoromethyl)-1H-pyrazol-1-yl]-phenyl}-acetamide], the COX-2 inhibitory activity (COX-2) is reported as “nor was any measurable COX-2 inhibitory activity detected”, the “Percent Growth” value (NCI-H522; Log10 Concentration −4.0) is reported as −37% and the “Percent Growth” value (NCI-H522; Log10 Concentration −5.0) is reported as −66%. The “Percent Growth” value (NCI-H522; Log10 Concentration −6.0) was 97%, the “Percent Growth” value (NCI-H522; Log10 Concentration −7.0) was 122% and the “Percent Growth” value (NCI-H522; Log10 Concentration −8.0) was 110%. For the same compound, the TGI (NCI-H522; in M (unit assumed)) was 3.94E−06, the TGI (MALME-3M) was 3.67E−06 and the “Percent Growth” value (MALME-3M; Log10 Concentration −4.0) was −56%. For the same compound, the “Percent Growth” value (MALME-3M; Log10 Concentration −5.0) was −67%, the “Percent Growth” value (MALME-3M; Log10 Concentration −6.0) was 87% and the “Percent Growth” value (MALME-3M; Log10 Concentration −7.0) was 93%. For the same compound, the “Percent Growth” value (MALME-3M; Log10 Concentration −8.0) was 92%, the TGI (UACC-62) was 3.15E−06 and the “Percent Growth” value (UACC-62; Log10 Concentration −4.0) was −46%. For the same compound, the “Percent Growth” value (UACC-62; Log10 Concentration −5.0) was −80%, the “Percent Growth” value (UACC-62; Log10 Concentration −6.0) was 79% and the “Percent Growth” value (UACC-62; Log10 Concentration −7.0) was 94%. For the same compound, the “Percent Growth” value (UACC-62; Log10 Concentration −8.0) was 105%, the TGI (IGROV1) was 3.97E−06 and the “Percent Growth” value (IGROV1; Log10 Concentration −4.0) was −35%. For the same compound, the “Percent Growth” value (IGROV1; Log10 Concentration −5.0) was −49%, the “Percent Growth” value (IGROV1; Log10 Concentration −6.0) was 74% and the “Percent Growth” value (IGROV1; Log10 Concentration −7.0) was 107%. The “Percent Growth” value (IGROV1; Log10 Concentration −8.0) was 97%, the TGI (OVCAR-3) was 3.32E−06 and the “Percent Growth” value (OVCAR-3; Log10 Concentration −4.0) was −35%. The “Percent Growth” value (OVCAR-3; Log10 Concentration −5.0) was −70%, the “Percent Growth” value (OVCAR-3; Log10 Concentration −6.0) was 76% and the “Percent Growth” value (OVCAR-3; Log10 Concentration −7.0) was 83%. The “Percent Growth” value (OVCAR-3; Log10 Concentration −8.0) was 89%, the TGI (OVCAR-4) was 3.41E−06 and the “Percent Growth” value (OVCAR-4; Log10 Concentration −4.0) was −68%. For the same compound, the “Percent Growth” value (OVCAR-4; Log10 Concentration −5.0) was −82%, the “Percent Growth” value (OVCAR-4; Log10 Concentration −6.0) was 94% and the “Percent Growth” value (OVCAR-4; Log10 Concentration −7.0) was 92%. For the same compound, the “Percent Growth” value (OVCAR-4; Log10 Concentration −8.0) was 99%, the TGI (OVCAR-5) was 3.32E−06 and the “Percent Growth” value (OVCAR-5; Log10 Concentration −4.0) was −71%. The “Percent Growth” value (OVCAR-5; Log10 Concentration −5.0) was −83%, the “Percent Growth” value (OVCAR-5; Log10 Concentration −6.0) was 90% and the “Percent Growth” value (OVCAR-5; Log10 Concentration −7.0) was 103%. For the same compound, the “Percent Growth” value (OVCAR-5; Log10 Concentration −8.0) was 97%, the TGI (OVCAR-8) was 4.05E−06 and the “Percent Growth” value (OVCAR-8; Log10 Concentration −4.0) was −24%. For the same compound, the “Percent Growth” value (OVCAR-8; Log10 Concentration −5.0) was −33%, the “Percent Growth” value (OVCAR-8; Log10 Concentration −6.0) was 51% and the “Percent Growth” value (OVCAR-8; Log10 Concentration −7.0) was 102%. The “Percent Growth” value (OVCAR-8; Log10 Concentration −8.0) was 97%.
